Assay results reported in patent publication US12077503B2, “Substituted cyclic amides and their use as herbicides” (FMC CORPORATION, priority 2015, dated 2024).

How the values were obtained:
Assay type in all cases: in vivo
Kochia (Kochia scoparia) [1] = experiment: Test A preemergence; settings: Bassia scoparia, pre-emergence, 240 h
Summary of the method: (§1)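 Visual injury scores from 0, no effect, to 100, complete control, were assigned versus untreated controls roughly 10 d after treatment in the greenhouse. Test chemicals, formulated with surfactant in a non-phytotoxic solvent, were applied to planted seeds as a preemergence soil spray or postemergence to one- to two-leaf plants 2 to 10 cm tall, in loam–sand soil.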

[2] = tested on: barnyardgrass (Echinochloa crus-galli); experiment: Test A preemergence; settings: Echinochloa crus-galli, pre-emergence, 240 h
Summary of the method: as §1

[3] = tested on: giant foxtail (Setaria faberii); experiment: Test A preemergence; settings: Setaria faberi, pre-emergence, 240 h
Summary of the method: as §1

[4] = tested on: pigweed (Amaranthus retroflexus); experiment: Test A preemergence; settings: Amaranthus retroflexus, pre-emergence, 240 h
[5] = tested on: ragweed (common ragweed, Ambrosia elatior); experiment: Test A preemergence; settings: Ambrosia artemisiifolia, pre-emergence, 240 h
Summary of the method: as §1

[6] = tested on: ryegrass, Italian (Italian ryegrass, Lolium multiflorum); experiment: Test A preemergence; settings: Lolium multiflorum, pre-emergence, 240 h
Summary of the method: as §1

[7] = tested on: Galium (catchweed bedstraw, Galium aparine); experiment: Test A postemergence; settings: Galium, post-emergence, 240 h, read-out: Plant response rating, Galium
Summary of the method: as §1

Kochia (Kochia scoparia) [8] = experiment: Test A postemergence; settings: Bassia scoparia, post-emergence, 240 h, read-out: Plant response rating, Kochia
Summary of the method: as §1

[9] = tested on: barnyardgrass (Echinochloa crus-galli); experiment: Test A postemergence; settings: Echinochloa crus-galli, post-emergence, 240 h, read-out: Plant response rating, Barnyardgrass
Summary of the method: as §1

[10] = tested on: blackgrass (Alopecurus myosuroides); experiment: Test A postemergence; settings: Alopecurus myosuroides, post-emergence, 240 h, read-out: Plant response rating, Blackgrass
Summary of the method: as §1

corn (Zea mays) = experiment: Test A postemergence; settings: Zea mays, post-emergence, 240 h
Summary of the method: as §1

[11] = tested on: giant foxtail (Setaria faberii); experiment: Test A postemergence; settings: Setaria faberi, post-emergence, 240 h, read-out: Plant response rating, Foxtail, Giant
Summary of the method: as §1

[12] = tested on: pigweed (Amaranthus retroflexus); experiment: Test A postemergence; settings: Amaranthus retroflexus, post-emergence, 240 h, read-out: Plant response rating, Pigweed
Summary of the method: as §1

[13] = tested on: ragweed (common ragweed, Ambrosia elatior); experiment: Test A postemergence; settings: Ambrosia artemisiifolia, post-emergence, 240 h, read-out: Plant response rating, Ragweed
Summary of the method: as §1

[14] = tested on: ryegrass, Italian (Italian ryegrass, Lolium multiflorum); experiment: Test A postemergence; settings: Lolium multiflorum, post-emergence, 240 h, read-out: Plant response rating, Ryegrass, Italian
Summary of the method: as §1

[15] = tested on: wheat (Triticum aestivum); experiment: Test A postemergence; settings: Triticum aestivum, post-emergence, 240 h, read-out: Plant response rating, Wheat
Summary of the method: as §1

[16] = tested on: barnyardgrass (Echinochloa crus-galli); experiment: Test B flooded paddy test; settings: Echinochloa crus-galli, 250 g ai/ha, Flood; 0 to 100 scale where 0 is no effect and 100 is complete control; read-out: Barnyardgrass plant response rating
Summary of the method: (§2)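 Response scored visually against untreated controls, 0 = no effect and 100 = complete control, 13–15 d after treatment in the greenhouse. Compounds added to paddy water held 3 cm above soil surface. Treatment given at 2-leaf stage.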

[17] = tested on: ducksalad (Heteranthera limosa); experiment: Test B flooded paddy test; settings: Heteranthera limosa, 250 g ai/ha, Flood; 0 to 100 scale where 0 is no effect and 100 is complete control; read-out: Ducksalad plant response rating
Summary of the method: as §2

rice (Oryra sativa) = experiment: Test B flooded paddy test; settings: Oryza sativa, 250 g ai/ha, Flood; 0 to 100 scale where 0 is no effect and 100 is complete control; read-out: Rice plant response rating
Summary of the method: as §2

[18] = tested on: sedge, umbrella (small-flower umbrella sedge, Cyperus difformis); experiment: Test B flooded paddy test; settings: Cyperus difformis, 250 g ai/ha, Flood; 0 to 100 scale where 0 is no effect and 100 is complete control; read-out: Sedge, Umbrella plant response rating
Summary of the method: as §2

[19] = 125 g ai/ha, Postemergence, visual injury after approximately 10 d, 0 to 100 scale where 0 is no effect and 100 is complete control
[20] = 500 g ai/ha, postemergence, visual injury, 0 to 100 scale (0 no effect, 100 complete control), approx. 10 d

**Q.** How did the pest or weed control at 125 g/ha (Kochia (Kochia scoparia) [1]; 125 g ai/ha, Preemergence, visual injury rating after approximately 10 d, read-out: Kochia plant response rating (0 to 100 scale, 0 is no effect, 100 is complete control)) turn out when `COc1ccc([C@H]2CN(C)C(=O)[C@@H]2C(=O)Nc2ccccc2F)cc1F` [Compound 1020] was run?
**A.** 30%

**Q.** What about the pest or weed control at 500 g/ha (Kochia (Kochia scoparia) [1]; 500 g ai/ha, preemergence, visual injury rating about 10 d after treatment, 0 to 100 scale (0 no effect, 100 complete control), read-out: Kochia plant response rating) of the same compound?
**A.** 20%

**Q.** What about the pest or weed control at 125 g/ha ([2]; 125 g ai/ha, Preemergence, visual injury rating after approximately 10 d, read-out: Barnyardgrass plant response rating (0 to 100 scale, 0 is no effect, 100 is complete control)) of the same compound?
**A.** 90%

**Q.** And the pest or weed control at 500 g/ha ([2]; 500 g ai/ha, preemergence, visual injury rating about 10 d after treatment, 0 to 100 scale (0 no effect, 100 complete control), read-out: Barnyardgrass plant response rating)?
**A.** 90%

**Q.** And the pest or weed control at 125 g/ha ([3]; 125 g ai/ha, Preemergence, visual injury rating after approximately 10 d, read-out: Foxtail, Giant plant response rating (0 to 100 scale, 0 is no effect, 100 is complete control))?
**A.** 90%

**Q.** What about the pest or weed control at 500 g/ha ([3]; 500 g ai/ha, preemergence, visual injury rating about 10 d after treatment, 0 to 100 scale (0 no effect, 100 complete control), read-out: Foxtail, Giant plant response rating) of the same compound?
**A.** 90%

**Q.** What about the pest or weed control at 125 g/ha ([4]; 125 g ai/ha, Preemergence, visual injury rating after approximately 10 d, read-out: Pigweed plant response rating (0 to 100 scale, 0 is no effect, 100 is complete control)) of the same compound?
**A.** 30%

**Q.** And the pest or weed control at 500 g/ha ([4]; 500 g ai/ha, preemergence, visual injury rating about 10 d after treatment, 0 to 100 scale (0 no effect, 100 complete control), read-out: Pigweed plant response rating)?
**A.** 40%

**Q.** And the pest or weed control at 125 g/ha ([5]; 125 g ai/ha, Preemergence, visual injury rating after approximately 10 d, read-out: Ragweed plant response rating (0 to 100 scale, 0 is no effect, 100 is complete control))?
**A.** 0%

**Q.** What about the pest or weed control at 500 g/ha ([5]; 500 g ai/ha, preemergence, visual injury rating about 10 d after treatment, 0 to 100 scale (0 no effect, 100 complete control), read-out: Ragweed plant response rating) of the same compound?
**A.** 20%

**Q.** What about the pest or weed control at 125 g/ha ([6]; 125 g ai/ha, Preemergence, visual injury rating after approximately 10 d, read-out: Ryegrass, Italian plant response rating (0 to 100 scale, 0 is no effect, 100 is complete control)) of the same compound?
**A.** 0%

**Q.** And the pest or weed control at 500 g/ha ([6]; 500 g ai/ha, preemergence, visual injury rating about 10 d after treatment, 0 to 100 scale (0 no effect, 100 complete control), read-out: Ryegrass, Italian plant response rating)?
**A.** 30%

**Q.** And the pest or weed control at 125 g/ha [7, 19]?
**A.** 40%

**Q.** And the pest or weed control at 500 g/ha [7, 20]?
**A.** 60%

**Q.** What about the pest or weed control at 125 g/ha (Kochia (Kochia scoparia) [8]; [19]) of the same compound?
**A.** 50%

**Q.** What about the pest or weed control at 500 g/ha (Kochia (Kochia scoparia) [8]; [20]) of the same compound?
**A.** 50%

**Q.** And the pest or weed control at 125 g/ha [9, 19]?
**A.** 90%

**Q.** And the pest or weed control at 500 g/ha [9, 20]?
**A.** 90%

**Q.** And the pest or weed control at 125 g/ha [10, 19]?
**A.** 0%

**Q.** What about the pest or weed control at 500 g/ha [10, 20] of the same compound?
**A.** 20%

**Q.** And the Corn plant response rating (crop injury, 0 = no effect, 100 = complete kill) at 125 g/ha (corn (Zea mays); [19])?
**A.** 0%

**Q.** What about the Corn plant response rating (crop injury, 0 = no effect, 100 = complete kill) at 500 g/ha (corn (Zea mays); [20]) of the same compound?
**A.** 30%

**Q.** What about the pest or weed control at 125 g/ha [11, 19] of the same compound?
**A.** 90%

**Q.** What about the pest or weed control at 500 g/ha [11, 20] of the same compound?
**A.** 90%

**Q.** And the pest or weed control at 125 g/ha [12, 19]?
**A.** 30%

**Q.** What about the pest or weed control at 500 g/ha [12, 20] of the same compound?
**A.** 30%

**Q.** And the pest or weed control at 125 g/ha [13, 19]?
**A.** 0%

**Q.** What about the pest or weed control at 500 g/ha [13, 20] of the same compound?
**A.** 0%

**Q.** What about the pest or weed control at 125 g/ha [14, 19] of the same compound?
**A.** 30%

**Q.** And the pest or weed control at 500 g/ha [14, 20]?
**A.** 30%

**Q.** What about the plant injury at 125 g/ha [15, 19] of the same compound?
**A.** 0%

**Q.** And the plant injury at 500 g/ha [15, 20]?
**A.** 30%

**Q.** What about the pest or weed control at 250 g/ha [16] of the same compound?
**A.** 75%

**Q.** What about the pest or weed control at 250 g/ha [17] of the same compound?
**A.** 90%

**Q.** What about the pest or weed control at 250 g/ha (rice (Oryra sativa)) of the same compound?
**A.** 20%

**Q.** What about the pest or weed control at 250 g/ha [18] of the same compound?
**A.** 0%
